Results published in patent US7892754B2, “Hepatitis B virus pre-S1 derived synthetic polypeptides and uses thereof” (priority 2001, dated 2011).
Ends that are not written are not given here. Peptide text beside a SMILES is read from it. * marks the point of attachment. Myristoyl = CCCCCCCCCCCCCC(=O)*

What was measured:
DHBV [1] = test: In vivo DHBV infection inhibition in ducks (Dot Blot of viral DNA, Western Blot of L protein in serum); settings: for L protein of DHBV in serum (Western Blot): 35 days post-infection, FIG. 6; for viral DNA in serum (Dot Blot): day 28 post-infection; for viral DNA in serum (Dot Blot) / viremia (Dot Blot of viral DNA in serum): FIG. 5; for viremia (Dot Blot of viral DNA in serum): ducks injected simultaneously with DHBV and peptide, days 9 and 15 post-infection
Protocol: Ducks are simultaneously injected with DHBV and duck preS Myr 2-41 (DpreS2-41^myr), heron preS Myr 2-44 (HepreS2-44^myr), human preS Myr 2-68 (HupreS2-68^myr), duck preS Myr 2-21 (DpreS2-21^myr) or ddH2O. The viremia of infected animals is assessed by Dot Blot analysis of viral DNA, 5, 9, 15 and 28 days post-infection.

DHBV [2] = test: In vitro DHBV infection of primary duck hepatocytes; assay type: cell-based
HBV [3] = test: Polypeptide competition assay: inhibition of HBV infection of human hepatocyte cultures, HBsAg ELISA in supernatant; assay type: cell-based; settings: for inhibitory activity against HBV infection, comparison of C-terminally truncated peptides: 0.8 to 800 nM; for effect on HBV infectivity (HBsAg secretion): FIG. 1
From the text: (§1) Fragments of normal adult human liver were obtained from patients undergoing hepatic resection for liver metastases (the fragments were taken at a distance from the metastasis in macroscopically normal liver). Access to this biopsy material was in agreement with French laws and satisfied the requirements of the French National Ethics Committee. Hepatocytes were isolated by the procedure of Guguen-Guillouzo and Guillouzo and cultured in H medium supplemented with 3.5×10^−6 M hydrocortisone hemisuccinate, 2 mM L-glutamine, 50 mg of gentamicin per litre, 2% dimethyl sulfoxide, 5% adult human serum, and 5% FCS. Three days after seeding, the cells were infected.
As an infectious inoculum, a 50-fold concentrated culture medium of HepG2 clone 2.2.15 cells was used, because of an unlimited supply and a constant quality.
It was prepared as described previously. Differentiated cells were incubated with the concentrated infectious source, 10-fold diluted in culture medium supplemented with 5% PEG 8000 (Sigma), for 20 h at 37° C. as described previously (Gripon et al., 1988; Gripon et al., 1993). Control cultures were incubated with 5% PEG and 25% FCS diluted in phosphate-buffered saline (PBS) instead of the infectious source. At the end of the incubation, cells were washed three times with the culture medium and maintained in the presence of 2% DMSO and 5×10^−5 M hydrocortisone hemisuccinate and harvested at indicated times.
(§2) Polypeptide competition assays were performed by pre-incubating cells with the analyzed polypeptide for 30 min, at 37° C., prior to the addition of the infectious source.
HBsAg was detected in the medium by an ELISA kit (Monolisa AgHBs plus) obtained from Bio-Rad Laboratories. Values are expressed in ng/ml of supernatant or percent of control (absence of peptide).

HBV [4] = test: Inhibition of HBV infection of human hepatocytes, RNA analysis (Northern blot); assay type: cell-based; settings: myristoylation and C-terminal truncation of pre-S1 peptides
From the text: as §1
It was prepared as described previously. Differentiated cells were incubated with the concentrated infectious source, 10-fold diluted in culture medium supplemented with 5% PEG 8000 (Sigma), for 20 h at 37° C. as described previously (Gripon et al., 1988; Gripon et al., 1993). […]
as §2
Total cellular RNA was extracted by Total SV RNA kit (Promega, France), fractionated on a 1.5% agarose gel and analyzed by standard Northern blot procedure (Sambrook et al., 1989). […]

[5] = 800 nM, HBsAg 7 days after infection, FIG. 2
[6] = 8 μM, HBsAg 8 days after infection, FIG. 3
[7] = HBsAg 7 days after infection, FIG. 2
[8] = doses lower than 800 nM, FIG. 2
[9] = 1 μM peptide, HBsAg 14 days post-infection

In the case of `CCCCCCCCCCCCCC(=O)NCC(=O)N[C@@H](CCC(N)=O)C(=O)N[C@@H](Cc1c[nH]cn1)C(=O)N1CCC[C@H]1C(=O)N[C@@H](C)C(=O)N[C@@H](CCCCN)C(=O)N[C@@H](CO)C(=O)N[C@@H](CCSC)C(=O)N[C@@H](CC(=O)O)C(=O)N[C@H](C(=O)N[C@@H](CCCNC(=N)N)C(=O)N[C@@H](CCCNC(=N)N)C(=O)N[C@H](C(=O)N[C@@H](CCC(=O)O)C(=O)NCC(=O)NCC(=O)N[C@@H](CCC(=O)O)C(=O)N[C@H](C(=O)N[C@@H](CC(C)C)C(=O)N[C@@H](CC(C)C)C(=O)N[C@@H](CC(N)=O)C(=O)N[C@@H](CCC(N)=O)C(=O)N[C@@H](CC(C)C)C(=O)N[C@@H](C)C(=O)NCC(=O)N[C@@H](CCCNC(=N)N)C(=O)N[C@@H](CCSC)C(=O)N[C@H](C(=O)N1CCC[C@H]1C(=O)N[C@@H](CCCCN)C(=O)NCC(=O)N[C@H](C(=O)N[C@@H](CC(C)C)C(=O)N[C@H](C(=O)N[C@@H](Cc1c[nH]c2ccccc12)C(=O)N[C@@H](CO)C(=O)NCC(=O)N[C@@H](CCCCN)C(=O)N[C@@H](Cc1ccccc1)C(=O)N1CCC[C@H]1C(=O)O)[C@@H](C)O)[C@@H](C)O)[C@@H](C)CC)[C@@H](C)CC)[C@@H](C)CC)C(C)C` [DHBV Myr PreS 2-41] (Myristoyl-GQHPAKSMDVRRIEGGEILLNQLAGRMIPKGTLTWSGKFP-OH; C-terminus assumed), the “L protein of DHBV in serum (Western Blot)” value (DHBV [1]) is reported as “not detected”, the “viral DNA in serum (Dot Blot)” value (DHBV [1]) is reported as “decreased or no longer detectable” and the “viremia (Dot Blot of viral DNA in serum)” value (DHBV [1]) is reported as “transitory viremia”. For the same compound, the “inhibition of DHBV infection” value (DHBV [2]) was “strong inhibitor” and the “activity on HBV infection” value (HBV [3]; text summary referring to table 1) was “complete absence of activity”.

In the case of `CCCCCCCCCCCCCC(=O)NCC(=O)N[C@@H](CCC(N)=O)C(=O)N[C@@H](Cc1c[nH]cn1)C(=O)N1CCC[C@H]1C(=O)N[C@@H](C)C(=O)N[C@@H](CCCCN)C(=O)N[C@@H](CO)C(=O)N[C@@H](CCSC)C(=O)N[C@@H](CC(=O)O)C(=O)N[C@H](C(=O)N[C@@H](CCCNC(=N)N)C(=O)N[C@@H](CCCNC(=N)N)C(=O)N[C@H](C(=O)N[C@@H](CCC(=O)O)C(=O)NCC(=O)NCC(=O)N[C@@H](CCC(=O)O)C(=O)N[C@H](C(=O)N[C@@H](CC(C)C)C(=O)N[C@@H](CC(C)C)C(=O)O)[C@@H](C)CC)[C@@H](C)CC)C(C)C` [DpreS2-21^myr] (Myristoyl-GQHPAKSMDVRRIEGGEILL-OH), the “L protein of DHBV in serum (Western Blot)” value (DHBV [1]) is reported as “not detected”, the “viral DNA in serum (Dot Blot)” value (DHBV [1]) is reported as “decreased or no longer detectable” and the “viremia (Dot Blot of viral DNA in serum)” value (DHBV [1]) is reported as “transitory viremia”. For the same compound, the “in vitro inhibitory activity towards DHBV infection” value (DHBV [2]; primary duck hepatocytes) was “no in vitro inhibitory activity”.

With `CCCCCCCCCCCCCC(=O)NCC(=O)N[C@@H](CCC(N)=O)C(=O)N[C@@H](CC(N)=O)C(=O)N[C@@H](CC(C)C)C(=O)N[C@@H](CO)C(=O)N[C@H](C(=O)N[C@@H](CO)C(=O)N[C@@H](CC(N)=O)C(=O)N1CCC[C@H]1C(=O)N[C@@H](CC(C)C)C(=O)NCC(=O)N[C@@H](Cc1ccccc1)C(=O)N[C@@H](Cc1ccccc1)C(=O)N1CCC[C@H]1C(=O)N[C@@H](CC(=O)O)C(=O)N[C@@H](Cc1c[nH]cn1)C(=O)N[C@@H](CCC(N)=O)C(=O)N[C@@H](CC(C)C)C(=O)N[C@@H](CC(=O)O)C(=O)N1CCC[C@H]1C(=O)N[C@@H](C)C(=O)N[C@@H](Cc1ccccc1)C(=O)N[C@@H](CCCNC(=N)N)C(=O)N[C@@H](C)C(=O)N[C@@H](CC(N)=O)C(=O)N[C@H](C(=O)N[C@@H](C)C(=O)O)[C@@H](C)O)[C@@H](C)O` [HBV Myr PreS 2-28] the “inhibition of HBV infection” value (HBV [3]; [5]) was 50%, the “inhibitory activity against HBV infection” value (HBV [3]; [6]) was “almost completely blocks HBV infection” and the “inhibitory activity against HBV infection, comparison of C-terminally truncated peptides” value (HBV [3]; [7]) was “largely less active”.

`CCCCCCCCCCCCCC(=O)NCC(=O)N[C@@H](CCC(N)=O)C(=O)N[C@@H](CC(N)=O)C(=O)N[C@@H](CC(C)C)C(=O)N[C@@H](CO)C(=O)N[C@H](C(=O)N[C@@H](CO)C(=O)N[C@@H](CC(N)=O)C(=O)N1CCC[C@H]1C(=O)N[C@@H](CC(C)C)C(=O)NCC(=O)N[C@@H](Cc1ccccc1)C(=O)N[C@@H](Cc1ccccc1)C(=O)N1CCC[C@H]1C(=O)N[C@@H](CC(=O)O)C(=O)N[C@@H](Cc1c[nH]cn1)C(=O)N[C@@H](CCC(N)=O)C(=O)N[C@@H](CC(C)C)C(=O)N[C@@H](CC(=O)O)C(=O)N1CCC[C@H]1C(=O)N[C@@H](C)C(=O)N[C@@H](Cc1ccccc1)C(=O)N[C@@H](CCCNC(=N)N)C(=O)N[C@@H](C)C(=O)N[C@@H](CC(N)=O)C(=O)N[C@H](C(=O)N[C@@H](C)C(=O)N[C@@H](CC(N)=O)C(=O)N1CCC[C@H]1C(=O)N[C@@H](CC(=O)O)C(=O)N[C@@H](Cc1c[nH]c2ccccc12)C(=O)N[C@@H](CC(=O)O)C(=O)N[C@@H](Cc1ccccc1)C(=O)N[C@@H](CC(N)=O)C(=O)N1CCC[C@H]1C(=O)N[C@@H](CC(N)=O)C(=O)N[C@@H](CCCCN)C(=O)O)[C@@H](C)O)[C@@H](C)O` [HBV Myr PreS 2-38] was tested, and the “inhibitory activity against HBV infection” value (HBV [3]; [6]) was “almost completely blocks HBV infection”.

For `CCCCCCCCCCCCCC(=O)NCC(=O)N[C@@H](CCC(N)=O)C(=O)N[C@@H](CC(N)=O)C(=O)N[C@@H](CC(C)C)C(=O)N[C@@H](CO)C(=O)N[C@H](C(=O)N[C@@H](CO)C(=O)N[C@@H](CC(N)=O)C(=O)N1CCC[C@H]1C(=O)N[C@@H](CC(C)C)C(=O)NCC(=O)N[C@@H](Cc1ccccc1)C(=O)N[C@@H](Cc1ccccc1)C(=O)N1CCC[C@H]1C(=O)N[C@@H](CC(=O)O)C(=O)N[C@@H](Cc1c[nH]cn1)C(=O)N[C@@H](CCC(N)=O)C(=O)N[C@@H](CC(C)C)C(=O)N[C@@H](CC(=O)O)C(=O)N1CCC[C@H]1C(=O)N[C@@H](C)C(=O)N[C@@H](Cc1ccccc1)C(=O)N[C@@H](CCCNC(=N)N)C(=O)N[C@@H](C)C(=O)N[C@@H](CC(N)=O)C(=O)N[C@H](C(=O)N[C@@H](C)C(=O)N[C@@H](CC(N)=O)C(=O)N1CCC[C@H]1C(=O)N[C@@H](CC(=O)O)C(=O)N[C@@H](Cc1c[nH]c2ccccc12)C(=O)N[C@@H](CC(=O)O)C(=O)N[C@@H](Cc1ccccc1)C(=O)N[C@@H](CC(N)=O)C(=O)N1CCC[C@H]1C(=O)N[C@@H](CC(N)=O)C(=O)N[C@@H](CCCCN)C(=O)N[C@@H](CC(=O)O)C(=O)N[C@H](C(=O)N[C@@H](Cc1c[nH]c2ccccc12)C(=O)N1CCC[C@H]1C(=O)N[C@@H](CC(=O)O)C(=O)N[C@@H](C)C(=O)N[C@@H](CC(N)=O)C(=O)N[C@@H](CCCCN)C(=O)N[C@H](C(=O)NCC(=O)O)C(C)C)[C@@H](C)O)[C@@H](C)O)[C@@H](C)O` [HBV Myr PreS 2-48], the “inhibitory activity against HBV infection by RNA analysis” value (HBV [4]) was “highest inhibitory activity” and the “inhibitory activity against HBV infection, comparison of C-terminally truncated peptides” value (HBV [3]; [7]) was “highest inhibitory activity”.

With “HBV Myr PreS 2-68: myristoylated HBV pre-S1 peptide, amino acids 2-68” the “infection of ducks with DHBV” value (DHBV [1]; FIGS. 5 and 6) was “seems to delay but do not prevent infection”, the “inhibitory activity against HBV infection” value (HBV [3]; [5]) was “very efficient” and the “inhibitory activity against HBV infection” value (HBV [3]; [8]) was “less active”.

With “HBV Myr PreS 2-78: myristoylated HBV pre-S1 peptide, amino acids 2-78” the “inhibitory activity against HBV infection” value (HBV [3]; [5]) was “very efficient”, the “effect on HBV infectivity (HBsAg secretion)” value (“effect on HBV infectivity” below) (HBV [3]; [9]) was “almost completely abolish it” and the “inhibitory activity against HBV infection” value (HBV [3]; [8]) was “less active”. The “effect on HBV infectivity” value (HBV [3]; lower doses than 1 μM) was “partly inhibitory”.

“HBV PreS 1-78: non myristoylated peptide, pre-S1 amino acids 1 to 78 of Hepatitis B virus subtype ayw” was tested, and the “effect on HBV infectivity” value (HBV [3]; [9]) was “only a faint effect”.

For “Myristoyl-GLNQSTFNPLGFFPSHQLDPLFKANAGSADWDKNPNKDPWPQAHDTA [WMHBV Myr PreS 2-48]”, the “comparative inhibitory activity towards HBV infection of human cells” value (HBV [3]; decreasing peptide concentrations, HBsAg day 10 post-infection, FIG. 4) was “nearly as efficient as the HBV derived peptide”.
